Each structure is given as a SMILES string.

In the first assay the test system is NCI-H23. Description: relative viability (nuclei count vs DMSO), 5 days (fraction); higher = more cells survive. The following applies: first compound 6.325 µM. An outline of the steps:
(§1)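 A single step with final 0.05% Triton X-100, 1% formaldehyde and 1 ug/ml Hoechst fixed the cells and stained nuclei 5 days after treatment. Lung cancer cell lines in 1536-well plates had been treated by pin tool the day after seeding with one drug alone or a fixed anchor-drug dose plus five library-drug doses (not always all listed) in √10 steps, and nuclei were counted on 4× images. Relative viability is the ratio of nuclei in treated wells to nuclei in vehicle wells, taken as the median of duplicate plates.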
Consider `COCC1(CO)C(=O)C2CCN1CC2` (stereo unspecified) [PRIMA-1MET] + Nc1ncn([C@H]2C[C@H](O)[C@@H](CO)O2)c(=O)n1 [Decitabine] (partner 2 µM), for which the relative viability came to 0.293.

The same assay, now with this note: first compound 20 µM.
Regarding `COCC1(CO)C(=O)C2CCN1CC2` (stereo unspecified) [PRIMA-1MET] + COc1cc2c(Oc3ccc(NC(=O)C4(C(=O)Nc5ccc(F)cc5)CC4)cc3F)ccnc2cc1OCCCN1CCOCC1 [Foretinib] (partner 0.25 µM), the relative viability was determined as 0.257.
With `COCC1(CO)C(=O)C2CCN1CC2` (stereo unspecified) [PRIMA-1MET] + NC(=O)Nc1cc(-c2cccc(F)c2)sc1C(=O)N[C@H]1CCCNC1 [AZD7762] (partner 0.2 µM), the relative viability came to 0.102.
On the same count and under the same terms, in the case of `COCC1(CO)C(=O)C2CCN1CC2` (stereo unspecified) [PRIMA-1MET] + Nc1nc2[nH]cc(CCc3ccc(C(=O)N[C@@H](CCC(=O)O)C(=O)O)cc3)c2c(=O)[nH]1 [Pemetrexed] (partner 0.2 µM) it was 0.175; in that of `COCC1(CO)C(=O)C2CCN1CC2` (stereo unspecified) [PRIMA-1MET] + CC(=O)Nc1cccc(-n2c(=O)n(C3CC3)c(=O)c3c(Nc4ccc(I)cc4F)n(C)c(=O)c(C)c32)c1 [Trametinib] (partner 0.02 µM), 0.112; in that of `COCC1(CO)C(=O)C2CCN1CC2` (stereo unspecified) [PRIMA-1MET] + Nc1ncn([C@H]2C[C@H](O)[C@@H](CO)O2)c(=O)n1 [Decitabine] (partner 2 µM), 0.162.

The test system of a further assay is LU99A. The assay is described as above. The following applies: first compound 0.2 µM. An outline of the steps:
as §1
`COCC1(CO)C(=O)C2CCN1CC2` (stereo unspecified) [PRIMA-1MET] + COc1cc2c(Oc3ccc(NC(=O)C4(C(=O)Nc5ccc(F)cc5)CC4)cc3F)ccnc2cc1OCCCN1CCOCC1 [Foretinib] (partner 0.25 µM) returned a relative viability of 0.84.
Turning to `COCC1(CO)C(=O)C2CCN1CC2` (stereo unspecified) [PRIMA-1MET] + NC(=O)Nc1cc(-c2cccc(F)c2)sc1C(=O)N[C@H]1CCCNC1 [AZD7762] (partner 0.2 µM), the relative viability came out at 0.548.
Consider `COCC1(CO)C(=O)C2CCN1CC2` (stereo unspecified) [PRIMA-1MET] + Nc1nc2[nH]cc(CCc3ccc(C(=O)N[C@@H](CCC(=O)O)C(=O)O)cc3)c2c(=O)[nH]1 [Pemetrexed] (partner 0.2 µM), for which the relative viability was found to be 0.191.
For the molecule `COCC1(CO)C(=O)C2CCN1CC2` (stereo unspecified) [PRIMA-1MET] + CC(=O)Nc1cccc(-n2c(=O)n(C3CC3)c(=O)c3c(Nc4ccc(I)cc4F)n(C)c(=O)c(C)c32)c1 [Trametinib] (partner 0.02 µM), the relative viability worked out at 0.314.
Still for that read-out and setting: to `COCC1(CO)C(=O)C2CCN1CC2` (stereo unspecified) [PRIMA-1MET] + Nc1ncn([C@H]2C[C@H](O)[C@@H](CO)O2)c(=O)n1 [Decitabine] (partner 2 µM) belongs 0.776.

Staying with this assay, now noted: first compound 0.6325 µM.
In the case of `COCC1(CO)C(=O)C2CCN1CC2` (stereo unspecified) [PRIMA-1MET] + COc1cc2c(Oc3ccc(NC(=O)C4(C(=O)Nc5ccc(F)cc5)CC4)cc3F)ccnc2cc1OCCCN1CCOCC1 [Foretinib] (partner 0.25 µM), the relative viability came out at 0.806.
With `COCC1(CO)C(=O)C2CCN1CC2` (stereo unspecified) [PRIMA-1MET] + NC(=O)Nc1cc(-c2cccc(F)c2)sc1C(=O)N[C@H]1CCCNC1 [AZD7762] (partner 0.2 µM), the relative viability amounted to 0.167.
`COCC1(CO)C(=O)C2CCN1CC2` (stereo unspecified) [PRIMA-1MET] + Nc1nc2[nH]cc(CCc3ccc(C(=O)N[C@@H](CCC(=O)O)C(=O)O)cc3)c2c(=O)[nH]1 [Pemetrexed] (partner 0.2 µM): the relative viability came to 0.161.
Molecule `COCC1(CO)C(=O)C2CCN1CC2` (stereo unspecified) [PRIMA-1MET] + CC(=O)Nc1cccc(-n2c(=O)n(C3CC3)c(=O)c3c(Nc4ccc(I)cc4F)n(C)c(=O)c(C)c32)c1 [Trametinib] (partner 0.02 µM) registered a relative viability of 0.573.
As to `COCC1(CO)C(=O)C2CCN1CC2` (stereo unspecified) [PRIMA-1MET] + Nc1ncn([C@H]2C[C@H](O)[C@@H](CO)O2)c(=O)n1 [Decitabine] (partner 2 µM), the relative viability stood at 0.722.

The same assay, now with this note: first compound 2 µM.
Molecule `COCC1(CO)C(=O)C2CCN1CC2` (stereo unspecified) [PRIMA-1MET] + COc1cc2c(Oc3ccc(NC(=O)C4(C(=O)Nc5ccc(F)cc5)CC4)cc3F)ccnc2cc1OCCCN1CCOCC1 [Foretinib] (partner 0.25 µM) had a relative viability of 0.813.
Turning to `COCC1(CO)C(=O)C2CCN1CC2` (stereo unspecified) [PRIMA-1MET] + NC(=O)Nc1cc(-c2cccc(F)c2)sc1C(=O)N[C@H]1CCCNC1 [AZD7762] (partner 0.2 µM), the relative viability stood at 0.443.
Still for that read-out and setting: to `COCC1(CO)C(=O)C2CCN1CC2` (stereo unspecified) [PRIMA-1MET] + Nc1nc2[nH]cc(CCc3ccc(C(=O)N[C@@H](CCC(=O)O)C(=O)O)cc3)c2c(=O)[nH]1 [Pemetrexed] (partner 0.2 µM) belongs 0.201; to `COCC1(CO)C(=O)C2CCN1CC2` (stereo unspecified) [PRIMA-1MET] + CC(=O)Nc1cccc(-n2c(=O)n(C3CC3)c(=O)c3c(Nc4ccc(I)cc4F)n(C)c(=O)c(C)c32)c1 [Trametinib] (partner 0.02 µM), 0.502; to `COCC1(CO)C(=O)C2CCN1CC2` (stereo unspecified) [PRIMA-1MET] + Nc1ncn([C@H]2C[C@H](O)[C@@H](CO)O2)c(=O)n1 [Decitabine] (partner 2 µM), 0.888.

Staying with this assay, now noted: first compound 6.325 µM.
As to `COCC1(CO)C(=O)C2CCN1CC2` (stereo unspecified) [PRIMA-1MET] + COc1cc2c(Oc3ccc(NC(=O)C4(C(=O)Nc5ccc(F)cc5)CC4)cc3F)ccnc2cc1OCCCN1CCOCC1 [Foretinib] (partner 0.25 µM), the relative viability is 0.913.
On the same count and under the same terms, to `COCC1(CO)C(=O)C2CCN1CC2` (stereo unspecified) [PRIMA-1MET] + NC(=O)Nc1cc(-c2cccc(F)c2)sc1C(=O)N[C@H]1CCCNC1 [AZD7762] (partner 0.2 µM) belongs 0.361; to `COCC1(CO)C(=O)C2CCN1CC2` (stereo unspecified) [PRIMA-1MET] + Nc1nc2[nH]cc(CCc3ccc(C(=O)N[C@@H](CCC(=O)O)C(=O)O)cc3)c2c(=O)[nH]1 [Pemetrexed] (partner 0.2 µM), 0.179.
`COCC1(CO)C(=O)C2CCN1CC2` (stereo unspecified) [PRIMA-1MET] + CC(=O)Nc1cccc(-n2c(=O)n(C3CC3)c(=O)c3c(Nc4ccc(I)cc4F)n(C)c(=O)c(C)c32)c1 [Trametinib] (partner 0.02 µM) yielded a relative viability of 0.261.
The same measure, in the same setting: to `COCC1(CO)C(=O)C2CCN1CC2` (stereo unspecified) [PRIMA-1MET] + Nc1ncn([C@H]2C[C@H](O)[C@@H](CO)O2)c(=O)n1 [Decitabine] (partner 2 µM) belongs 0.674.

Still in this assay, the particulars now being: first compound 20 µM.
Molecule `COCC1(CO)C(=O)C2CCN1CC2` (stereo unspecified) [PRIMA-1MET] + COc1cc2c(Oc3ccc(NC(=O)C4(C(=O)Nc5ccc(F)cc5)CC4)cc3F)ccnc2cc1OCCCN1CCOCC1 [Foretinib] (partner 0.25 µM) came in with a relative viability of 0.394.
Still for that read-out and setting: in the case of `COCC1(CO)C(=O)C2CCN1CC2` (stereo unspecified) [PRIMA-1MET] + NC(=O)Nc1cc(-c2cccc(F)c2)sc1C(=O)N[C@H]1CCCNC1 [AZD7762] (partner 0.2 µM) it was 0.0555; in that of `COCC1(CO)C(=O)C2CCN1CC2` (stereo unspecified) [PRIMA-1MET] + Nc1nc2[nH]cc(CCc3ccc(C(=O)N[C@@H](CCC(=O)O)C(=O)O)cc3)c2c(=O)[nH]1 [Pemetrexed] (partner 0.2 µM), 0.187.
The same measure, in the same setting: in the case of `COCC1(CO)C(=O)C2CCN1CC2` (stereo unspecified) [PRIMA-1MET] + CC(=O)Nc1cccc(-n2c(=O)n(C3CC3)c(=O)c3c(Nc4ccc(I)cc4F)n(C)c(=O)c(C)c32)c1 [Trametinib] (partner 0.02 µM) it was 0.21; in that of `COCC1(CO)C(=O)C2CCN1CC2` (stereo unspecified) [PRIMA-1MET] + Nc1ncn([C@H]2C[C@H](O)[C@@H](CO)O2)c(=O)n1 [Decitabine] (partner 2 µM), 0.51.

The values are drawn from the supplement of paper PMC10307832.
